From ChEMBL document CHEMBL2163341, “Discovery of MK-7725, A Potent, Selective Bombesin Receptor Subtype-3 Agonist for the Treatment of Obesity” (ACS Med Chem Lett, 2012)
Activity calls are given as the source filed them. No cut-off for these calls is given here.

Key:
Mus musculus [1] = assay: Increase of core body temperature in DIO mouse assessed as AUC (1 to 6 hrs) of body temperature changes at 3 mg/kg by fasted temperature PD assay; format: functional
[2] = Plasma clearance in Sprague-Dawley rat at 0.5 mg/kg, iv; format: ADME, organism-based; parameters: dose 0.5 mg/kg, route intravenous
[3] = target: T1, Bombesin receptor subtype-3 (Mus musculus, UniProt O54798); assay: Agonist activity at mouse BRS-3 expressed in HEK293AEQ cells assessed as bioluminescence for 10 mins by aequorin bioluminescence assay; format: functional, cell-based
T1 sequence (O54798 whole entry): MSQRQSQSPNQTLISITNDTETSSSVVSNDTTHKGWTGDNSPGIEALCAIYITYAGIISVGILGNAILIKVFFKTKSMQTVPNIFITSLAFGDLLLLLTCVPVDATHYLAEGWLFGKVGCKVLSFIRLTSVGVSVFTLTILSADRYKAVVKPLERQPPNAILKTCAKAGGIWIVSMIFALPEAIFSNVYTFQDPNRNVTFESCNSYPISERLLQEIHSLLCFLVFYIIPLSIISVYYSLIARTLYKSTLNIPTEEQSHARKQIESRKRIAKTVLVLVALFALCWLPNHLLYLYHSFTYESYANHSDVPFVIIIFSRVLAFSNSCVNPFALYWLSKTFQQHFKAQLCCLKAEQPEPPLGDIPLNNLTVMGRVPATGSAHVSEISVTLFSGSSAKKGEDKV

[4] = target: T2, Nuclear receptor subfamily 1 group I member 2 (Homo sapiens, UniProt O75469); assay: Activation of PXR at 10 uM
T2 sequence (O75469 whole entry): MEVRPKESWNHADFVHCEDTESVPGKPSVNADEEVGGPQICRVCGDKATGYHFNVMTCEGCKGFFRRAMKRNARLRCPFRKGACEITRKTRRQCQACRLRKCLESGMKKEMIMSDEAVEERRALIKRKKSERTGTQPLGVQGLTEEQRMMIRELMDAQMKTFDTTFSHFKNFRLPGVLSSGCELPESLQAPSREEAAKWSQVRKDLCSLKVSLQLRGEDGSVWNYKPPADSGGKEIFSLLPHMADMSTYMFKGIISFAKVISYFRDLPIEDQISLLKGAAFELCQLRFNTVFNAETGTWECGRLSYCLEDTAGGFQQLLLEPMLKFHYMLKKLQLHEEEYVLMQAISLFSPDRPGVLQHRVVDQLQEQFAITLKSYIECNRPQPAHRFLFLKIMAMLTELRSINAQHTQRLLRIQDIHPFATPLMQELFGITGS

[5] = target: T3, Bombesin receptor subtype-3 (Mus musculus) (UniProt O54798); assay: Agonist activity at mouse BRS-3 expressed in HEK293AEQ cells assessed as bioluminescence for 10 mins by aequorin bioluminescence assay relative to dY-peptide; format: functional, cell-based
T3 sequence (whole entry): T1 sequence (O54798 whole entry)

Rattus norvegicus [6] = assay: Dose normalized AUC in Sprague-Dawley rat at 1 mg/kg, po; format: ADME, organism-based; parameters: dose 1 mg/kg, route oral; conditions: in vivo
[7] = target: T4, Bombesin receptor subtype-3 (Homo sapiens, UniProt P32247); assay: Displacement of [125I]-dY-peptide from human BRS-3 expressed in NFAT-CHO cells after 2 hrs by liquid scintillation counting; format: cell-based
T4 sequence (P32247 whole entry): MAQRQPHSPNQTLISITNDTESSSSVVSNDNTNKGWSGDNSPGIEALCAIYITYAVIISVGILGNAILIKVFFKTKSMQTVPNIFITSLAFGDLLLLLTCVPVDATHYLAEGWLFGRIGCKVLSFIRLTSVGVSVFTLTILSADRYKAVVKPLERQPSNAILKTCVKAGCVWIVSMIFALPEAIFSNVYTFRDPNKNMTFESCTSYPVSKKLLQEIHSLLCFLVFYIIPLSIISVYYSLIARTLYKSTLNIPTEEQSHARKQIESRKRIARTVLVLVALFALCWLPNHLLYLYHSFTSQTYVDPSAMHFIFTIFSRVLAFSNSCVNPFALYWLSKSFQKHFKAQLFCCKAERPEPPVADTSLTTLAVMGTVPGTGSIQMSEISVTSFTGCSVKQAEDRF

[8] = Half life in Sprague-Dawley rat at 0.5 mg/kg, iv; format: ADME, organism-based; parameters: dose 0.5 mg/kg, route intravenous; conditions: in vivo
[9] = target: T2, Nuclear receptor subfamily 1 group I member 2; assay: Activation of PXR
[10] = Oral bioavailability in Sprague-Dawley rat at 1 mg/kg; format: ADME, organism-based; conditions: in vivo
[11] = target: T5, Bombesin receptor subtype-3 (Homo sapiens) (UniProt P32247); assay: Agonist activity at human BRS-3 expressed in HEK293AEQ cells assessed as bioluminescence for 10 mins by aequorin bioluminescence assay relative to dY-peptide; format: functional, cell-based
T5 sequence (whole entry): T4 sequence (P32247 whole entry)

[12] = target: T4, Bombesin receptor subtype-3; assay: Agonist activity at human BRS-3 expressed in HEK293AEQ cells assessed as bioluminescence for 10 mins by aequorin bioluminescence assay; format: functional, cell-based
Canis familiaris [13] = assay: Dose normalized AUC in dog at 1 mg/kg, po; format: ADME, organism-based, Canis lupus familiaris; parameters: dose 1 mg/kg, route oral; conditions: in vivo
Rattus norvegicus [14] = assay: Antiobesity activity in DIO Sprague-Dawley rat assessed as increase in metabolic rate at 15 to 50 mg/kg, po administered bid for 12 days; format: functional, organism-based
Rattus norvegicus [15] = assay: Antiobesity activity in DIO Sprague-Dawley rat assessed as reduction of body weight at 15 mg/kg, po administered bid for 12 days; format: functional; parameters: scale not given: the % may be the effect or the level left
Mus musculus [16] = assay: Antiobesity activity in BRS-3 knock out DIO C57BL/6 mouse assessed as reduction of food intake at 100 mg/kg, po after 18 hrs; format: functional, organism-based; parameters: dose 100 mg/kg
Rattus norvegicus [17] = assay: Toxicity in DIO Sprague-Dawley rat assessed as tachyphylaxis at 15 to 50 mg/kg, po administered bid for 12 days; format: organism-based; parameters: dose 15-50 mg/kg, route oral; conditions: in vivo, 288 h
[18] = Oral bioavailability in rhesus monkey at 1 mg/kg; format: ADME, organism-based, Macaca mulatta; conditions: in vivo
Rhesus monkey = assay: Dose normalized AUC in rhesus monkey at 1 mg/kg, po; format: ADME, organism-based, Macaca mulatta; parameters: dose 1 mg/kg, route oral; conditions: in vivo
[19] = Half life in rhesus monkey at 0.5 mg/kg, iv; format: ADME, organism-based, Macaca mulatta; parameters: dose 0.5 mg/kg, route intravenous; conditions: in vivo
Mus musculus [20] = assay: Antiobesity activity in po dosed wild type DIO C57 mouse assessed as reduction of food intake; format: functional, organism-based
[21] = Oral bioavailability in dog at 1 mg/kg; format: ADME, organism-based, Canis lupus familiaris; conditions: in vivo
[22] = Plasma clearance in dog at 0.5 mg/kg, iv; format: ADME, organism-based, Canis lupus familiaris; parameters: dose 0.5 mg/kg, route intravenous
Rattus norvegicus [23] = assay: Antiobesity activity in DIO Sprague-Dawley rat assessed as reduction of body weight at 50 mg/kg, po administered bid for 12 days; format: functional; parameters: scale not given: the % may be the effect or the level left
Mus musculus [24] = assay: Antiobesity activity in po dosed wild type DIO C57 mouse assessed as reduction of body weight; format: functional, organism-based
[25] = Half life in dog at 0.5 mg/kg, iv; format: ADME, organism-based, Canis lupus familiaris; parameters: dose 0.5 mg/kg, route intravenous; conditions: in vivo
Canis familiaris [26] = assay: Antiobesity activity in obese Beagle dog assessed as reduction of body weight at 5 to 15 mg/kg, po administered for 7 days relative to control; format: functional, Canis lupus familiaris; parameters: scale not given: the % may be the effect or the level left; conditions: dose mg/kg 5-15
[27] = Plasma clearance in rhesus monkey at 0.5 mg/kg, iv; format: ADME, organism-based, Macaca mulatta; parameters: dose 0.5 mg/kg, route intravenous
Rattus norvegicus [28] = assay: Antiobesity activity in DIO Sprague-Dawley rat assessed as reduction of body weight at 3 mg/kg, po administered bid for 12 days; format: functional; parameters: scale not given: the % may be the effect or the level left

| Structure (SMILES) | Activity (Mus musculus [1]) [degreeC.hr] | clearance [2] [mL/min/kg] | EC50 [3] [nM] | Activity [4] [%] | Activity [5] [%] | AUC/dose (Rattus norvegicus [6]) [µM·kg·h/mg] | IC50 [7] [nM] | half-life [8] [h] | EC50 [9] [nM] | bioavailability [10] [%] | Activity [11] [%] | EC50 [12] [nM] | also measured |
| --- | --- | --- | --- | --- | --- | --- | --- | --- | --- | --- | --- | --- | --- |
| CC(C)(O)c1nc(-c2cccc3c2N(S(=O)(=O)c2ccc(C(F)(F)F)cc2)Cc2ccc(C(F)(F)F)nc2N3)no1 | 5.22 | 33 | 95 | 6 | 97 | 1.05 | 8.3 | 2.5 | > 30000 | 100 |  |  |  |
| CC(C)(C)c1ccc(S(=O)(=O)N2Cc3ccc(C(F)(F)F)nc3Nc3cccc(-c4noc(C(C)(C)O)n4)c32)cc1 | 2.6 | 44 | 83 | 13 | 117 | 0.65 | 0.9 | 1.9 | > 10000 | 14 | 106 | 52 |  |
| C[C@@H](O)c1nc(-c2cccc3c2N(S(=O)(=O)c2ccc(C(C)(C)C)cc2)Cc2ccc(C(F)(F)F)nc2N3)no1 | 0.4 | 33 | 134 | 18 | 112 | 0.9 | 1.9 | 1.8 | > 25000 | 11 | 107 | 69 |  |
| CC(C)(O)c1nc(-c2cccc3c2N(S(=O)(=O)c2ccc(OC(F)F)cc2)Cc2ccc(C(F)(F)F)nc2N3)no1 | 3.31 |  | 99 | 22 | 94 |  | 18 |  | 10000 |  |  |  |  |
| Cc1ccc2c(c1C)N(S(=O)(=O)c1ccc(C(C)(C)C)cc1)Cc1ccc(C(F)(F)F)nc1N2 |  |  |  | 42 |  |  |  |  |  |  |  |  |  |
| CC(C)(C)c1ccc(S(=O)(=O)N2Cc3ccc(C(F)(F)F)nc3Nc3cccc(-c4noc(=O)[nH]4)c32)cc1 | -0.52 |  | 76 | 42 | 105 |  | 29 |  | 1900 |  | 104 | 77 |  |
| C[C@H](O)c1nc(-c2cccc3c2N(S(=O)(=O)c2ccc(C(C)(C)C)cc2)Cc2ccc(C(F)(F)F)nc2N3)no1 | 3.7 | 86 | 89 | 9 | 109 | 0.34 | 1.2 | 2.1 | > 10000 | 14 | 102 | 52 |  |
| CC(C)(O)c1nc(-c2cccc3c2N(S(=O)(=O)c2ccc(OC(F)(F)F)cc2)Cc2ccc(C(F)(F)F)nc2N3)no1 | 5.6 |  |  | 17 | 106 | 1.6 |  |  | > 30000 |  |  |  | AUC/dose (Canis familiaris [13]): 10 µM·kg·h/mg; Activity (Rattus norvegicus [14]): Active; Activity (Rattus norvegicus [15]): 4%; Activity (Mus musculus [16]): inactive; Activity (Rattus norvegicus [17]): Non-toxic; bioavailability [18]: 58%; AUC/dose (Rhesus monkey): 12 µM·kg·h/mg; half-life [19]: 33 h; Activity (Mus musculus [20]): Dose-dependent effect; bioavailability [21]: 100%; clearance [22]: 2.9 mL/min/kg; Activity (Rattus norvegicus [23]): 3.2%; Activity (Mus musculus [24]): Dose-dependent effect; half-life [25]: 18 h; Activity (Canis familiaris [26]): 4%; clearance [27]: 1.3 mL/min/kg |
| CCNC(C)Cc1cccc(C(F)(F)F)c1 (stereo unspecified) [FENFLURAMINE] |  |  |  |  |  |  |  |  |  |  |  |  | Activity (Rattus norvegicus [28]): 6.2% |
| CC(C)(C)c1ccc(S(=O)(=O)N2Cc3ccc(C(F)(F)F)nc3Nc3cccc(C4CCNCC4)c32)cc1 | -0.74 |  | 115 | 37 | 129 |  | 1.4 |  | 6600 |  | 101 | 114 |  |
| CC(C)(C)c1ccc(S(=O)(=O)N2Cc3ccc(C(F)(F)F)nc3Nc3cccc(-c4ncon4)c32)cc1 | 2.1 |  | 57 | 53 | 116 |  | 1.1 |  | 11800 |  | 102 | 40 |  |
| Cn1cc(-c2cccc3c2N(S(=O)(=O)c2ccc(C(C)(C)C)cc2)Cc2ccc(C(F)(F)F)nc2N3)cn1 | 0.2 |  | 102 | 50 | 110 |  | 0.76 |  | 1100 |  | 95 | 63 |  |
| CC(C)(C)c1ccc(S(=O)(=O)N2Cc3ccc(C(F)(F)F)nc3Nc3cccc(-c4noc(CO)n4)c32)cc1 | 2.6 | 22 | 93 | 78 | 114 | 0.39 | 0.7 | 1.7 | 3500 | 29 | 102 | 56 |  |
| CC(C)c1ccc(S(=O)(=O)N2Cc3ccc(C(F)(F)F)nc3Nc3cccc(-c4noc(C(C)(C)O)n4)c32)cc1 | 4.93 | 49 | 147 | 80 | 114 |  | 1.7 | 1.6 | 2400 | 8 |  |  |  |
| CC(C)(C)c1ccc(S(=O)(=O)N2Cc3ccc(C(F)(F)F)nc3Nc3cccc(-c4cccnc4)c32)cc1 | -0.99 |  | 58 | 77 | 105 |  | 1.72 |  | 1800 |  | 99 | 42 |  |
